What was measured:
Jak2 kinase = target: T1, Jak2 kinase (Homo sapiens, UniProt O60674); assay: in vitro kinase assay on Jak2 immunoprecipitated from G2 cell lysate; type: biochemical; conditions: scanning autoradiographs of the kinase assays
T1 construct: Jak2 kinase was immunoprecipitated from a 1% Triton-X100 lysate of 10x10^6 G2 cells; endogenous in cells; host or cells: G2 pre-B leukemia cell line
Experimental: Compounds chosen on the basis of their ability to inhibit the growth (colony formation) of the pre-B leukemia cell line G2 were tested for inhibition of Jak2 kinase.
Jak2 kinase was immunoprecipitated from a 1% Triton-X100 lysate of 10x10^6 G2 cells. An in vitro kinase assay was performed on the immunoprecipitated Jak2 in the presence or absence of varying concentrations of the compounds AG 1977, AG 1978, AG 2009 and AG 2010.
Stock solutions of 100mM tyrphostin were made in 100% DMSO and further dilutions made in 10% DMSO. Control kinase assays carried out in the presence of DMSO concentrations of 5-30% alone were unaffected by its presence.
Initial experiments were done with tyrphostin concentrations of 0.1, 1.0 and 10µM. These concentrations had no affect on the kinase activity of Jak2. […]

normal bone marrow cells = assay: modified CFU-GEMM clonogenic assay on normal bone marrow cells; type: cell-based, human; conditions: 40µM
Experimental: Compounds showing inhibition of ALL colony formation were examined for their effect on normal bone marrow cells using a modified CFU-GEMM clonogenic assay.
The assay was performed according to Fauser and Messner (1978), Blood, v. 52, pp. 1243-8, and Messner and Fausser (1980), Blut, v. 41, pp. 327-333, with some variations. In brief, heparinized bone marrow cells were layered over Percoll (Pharmacia Fine Chemical. Piscataway N.J.) at a density of 1.077 gm/ml and centrifuged at 400 g at 4°C for 10 min. to remove neutrophils and RBCs. The fractionated bone marrow cells at 2x10^5 cells/ml were cultured in IMDM (OCI, Toronto) containing 0.9% (vol/vol) methylcellulose supplemented with 30% FCS (Cansera Rexdale, Ont.) or normal human plasma, a cocktail of cytokines consisting of G-CSF (10 ng/ml. Amgen), IL-3 (40 U/ml, Immunex), MGF (50 ng/ml, Immunex), Erythropoietin (2u/ml, Epprex) or TPO (10 ng/ml, Amgen) and 5x10^-5 2-mercaptoethanol. The culture mixture was plated in 1 ml volumes into 35 mm petri dishes and incubated at 37°C with 5% CO2 in a humidified atmosphere with concentrations of tyrphostin up to 40 µm.

G2 ALL cells = assay: clonogenic assay, inhibition of colony formation of ALL cell line G2; type: cell-based, human
Experimental: Inhibition of colony formation was studied by methods described previously (Kamel-Reid et al., (1992), Leukemia, v. 6, pp. 8-17; Meydan et al., (1996), Nature, v. 379, pp. 645-648).
ALL cell lines A1 (at 8x10^5 cells/ml), C1 (at 4x10^4 cells/ml) and G2 (at 1.15x10^6 cells/ml) were plated in 1 ml volumes, in the absence of exogenous growth factors, into 35 mm petri dishes (Nunc, Gibco) containing alpha MEM (Gibco) plus 10% FCS (Cansera Rexdale, Ont.) in 0.9% (vol/vol) methylcellulose (Fluka, Switzerland). Cultures were set up at 37°C with 5% CO2 in a humidified atmosphere and 10 uM of a selected tyrphostin was added. Colonies consisting of more than 20 cells were counted at 12 days (A1), 5 days (C1) and 14 days (G2) using an inverted microscope. Similar results were obtained with A1 and C1.
Various concentrations of tyrphostins were tested for inhibition of ALL cells in the clonogenic assay described in Example 2. Compounds AG 1977. 1978, 2007, 2008, 2009 and 2010 were tested against ALL cell lines A1, C1 and G2 in doses ranging from nanomolar to micromolar values.

T1 sequence (O60674 whole entry): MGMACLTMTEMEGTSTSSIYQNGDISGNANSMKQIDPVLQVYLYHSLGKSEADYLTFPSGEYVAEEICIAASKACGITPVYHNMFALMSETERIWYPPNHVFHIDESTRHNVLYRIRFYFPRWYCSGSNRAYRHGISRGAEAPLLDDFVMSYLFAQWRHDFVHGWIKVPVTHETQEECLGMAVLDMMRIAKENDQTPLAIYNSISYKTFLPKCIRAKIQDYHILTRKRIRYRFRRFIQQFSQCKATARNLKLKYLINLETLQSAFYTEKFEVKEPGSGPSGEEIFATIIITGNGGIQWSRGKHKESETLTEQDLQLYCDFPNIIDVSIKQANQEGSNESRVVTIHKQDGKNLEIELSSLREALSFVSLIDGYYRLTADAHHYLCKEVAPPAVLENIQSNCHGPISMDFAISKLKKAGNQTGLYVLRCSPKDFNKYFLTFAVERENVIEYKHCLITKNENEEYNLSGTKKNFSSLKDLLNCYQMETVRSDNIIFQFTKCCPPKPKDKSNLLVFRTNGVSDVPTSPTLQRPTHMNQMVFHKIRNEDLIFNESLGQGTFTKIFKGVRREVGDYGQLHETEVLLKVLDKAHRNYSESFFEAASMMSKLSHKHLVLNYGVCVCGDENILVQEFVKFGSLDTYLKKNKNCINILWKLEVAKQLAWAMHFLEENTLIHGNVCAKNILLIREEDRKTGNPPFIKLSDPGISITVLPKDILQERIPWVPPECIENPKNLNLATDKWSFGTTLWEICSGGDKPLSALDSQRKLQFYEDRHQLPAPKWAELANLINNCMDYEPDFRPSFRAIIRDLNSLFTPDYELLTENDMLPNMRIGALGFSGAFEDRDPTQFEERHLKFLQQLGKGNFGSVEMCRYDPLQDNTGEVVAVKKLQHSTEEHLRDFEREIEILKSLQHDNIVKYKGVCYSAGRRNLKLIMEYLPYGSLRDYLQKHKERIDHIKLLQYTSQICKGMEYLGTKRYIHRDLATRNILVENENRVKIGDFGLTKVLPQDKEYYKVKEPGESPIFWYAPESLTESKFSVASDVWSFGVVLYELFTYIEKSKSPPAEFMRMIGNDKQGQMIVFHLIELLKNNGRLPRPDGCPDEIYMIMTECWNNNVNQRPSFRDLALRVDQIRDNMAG

In the case of `N#C/C(=C\c1cc(O)c(O)c(CSc2ccccc2)c1)C(=O)NCc1ccccc1` [AG 1978, N-benzyl-2-cyano-3-(3',4-dihydroxy-5'-methylenethiophenylphenyl) acrylamide], the “%inhibition of kinase activity” value (Jak2 kinase; 5µM tyrphostin) is reported as 10%, the “%inhibition of kinase activity” value (Jak2 kinase; 25µM tyrphostin) is reported as 13% and the “%inhibition of kinase activity” value (Jak2 kinase; 50µM tyrphostin) is reported as 46%.

For `N#C/C(=C\c1cc(O)c(O)c(CSCCCc2ccccc2)c1)C(=O)NCc1ccccc1` [AG 2010, N-benzyl-2-cyano-3-(3',4'-dihydroxy-5'-(methylenethiopropylphenyl)phenyl) acrylamide], the “%inhibition of kinase activity” value (Jak2 kinase; 5µM tyrphostin) was 5%, the “%inhibition of kinase activity” value (Jak2 kinase; 25µM tyrphostin) was 5% and the “%inhibition of kinase activity” value (Jak2 kinase; 50µM tyrphostin) was 39%. For the same compound, the “inhibition of normal bone marrow colonies” value (normal bone marrow cells) was “significant inhibition”.

`N#C/C(=C\c1cc(O)c(O)c(CSCc2ccccc2)c1)C(=O)NCc1ccccc1` [AG 1977, N-benzyl-2-cyano-3-(3',4'-dihydroxy-5'-methylenethiobenzylphenyl) acrylamide] was tested, and the “%inhibition of kinase activity” value (Jak2 kinase; 5µM tyrphostin) was 23%, the “%inhibition of kinase activity” value (Jak2 kinase; 25µM tyrphostin) was 14% and the “%inhibition of kinase activity” value (Jak2 kinase; 50µM tyrphostin) was 15%.

In the case of `N#C/C(=C\c1cc(O)c(O)c(CSCCc2ccccc2)c1)C(=O)NCc1ccccc1` [AG 2009, N-benzyl-2-cyano-3-(3',4'-dihydroxy-5'-(methylenethioethylphenyl)phenyl) acrylamide], the “%inhibition of kinase activity” value (Jak2 kinase; 5µM tyrphostin) is reported as 0%, the “%inhibition of kinase activity” value (Jak2 kinase; 25µM tyrphostin) is reported as 0% and the “%inhibition of kinase activity” value (Jak2 kinase; 50µM tyrphostin) is reported as 8%. The inhibition at 0.016 µM (G2 ALL cells; Homo sapiens, dose of 16nM, G2 cells) was over 50%, the clonogenic inhibition (G2 ALL cells; against G2 cells, dose responsive (Fig. 13), compared with AG 1977, 1978, 2007, 2008, 2010) was “most potent clonogenic inhibition” and the differential therapeutic index (G2 ALL cells; survival curve of normal BM and G2 colonies (Fig. 14)) was “greater than 2 logs”.
